Each structure is given as a SMILES string.

The text below walks through data of patent publication US20090170906A1, “HCV INHIBITORS” (priority 2004, published 2009).

The test system of the assay is HCV genotype 1b strain Con1 replicon (ET replicon line, Huh7 cells). In words: ET replicon luciferase assay (HCV activity). It counts as cell-based. Conditions: Hepatitis C virus, Huh-7, Huh7 cells with HCV genotype 1b Con1 luciferase replicon, 72 hours incubation. The method, then: Compounds of the current invention are believed useful in the treatment and/or prophylaxis of conditions and diseases associated with HcV infection. Activity mediated through HCV was determined using an ET replicon line.
The Materials used include a Medium comprised of DMEM (1× liquid, high glucose); Invitrogen cat# 11965-092; 100× Penicillin/Streptomycin solution (10,000 Units/mL); Invitrogen cat# 15140-122; 100× Non-essential amino acid solution (10 mM); Invitrogen cat# 11140-050; Fetal bovine serum; JRH Biosciences cat# 12107-500M; Geneticin (50 mg/mL); Invitrogen cat# 10131-035
The Luciferase assay reagents include Steady-Glo Luciferase assay system, cat# E2550 (Promega)
The ET replicon line (see Lohmann et al. (1999), Replication of subgenomic hepatitis C virus RNAs in a hepatoma cell line. Science 285: 110-113; Krieger et al. (2001), Enhancement of hepatitis C virus RNA replication by cell culture-adaptive mutations. J. Virol. 75: 46144624; and Vrolijk et al. (2003), A replicon-based bioassay for the measurement of interferons in patients with chronic hepatitis C. J. Virol. Meth. 110: 201-209, each herein incorporated by reference with regard to the ET replicon line), includes Huh7 cells stably transfected with HCV genotype 1b strain Con1 replicon. This replicon expresses the firefly luciferase, has the coding region for ubiquitin inserted upstream of the neomycin gene, and carries three cell culture-adaptive mutations that enhance RNA replication cooperatively (E1202G, T1280I, and S2197P). The ET cell line was obtained under licence from: R^eBLikon GmbH, Nach dem alten Schloss 22, 55239 Gau-Odemheim, Germany.
Cells are maintained at 37° C., 5% CO2, in DMEM with 10% FCS, 1× penicillin/streptomycin, 1× non-essential amino acids, 0.5 mg/mL Geneticin. For passage, cells are washed once with PBS, and incubated at 37° C. with sufficient trypsin (0.05%)/versene to cover the monolayer. Once detached from the flask, cells are mixed with several mLs of DMEM+10% FBS to inactivate the trypsin, then diluted appropriately (usually 1 in 5 or 1 in 10) with sufficient medium to pass to a new flask. For a T225 flask, 40-50 mLs total volume of cells+medium is typically used. To prevent the density dependent drop in replicon RNA, the ET cell line is maintained at sub-confluent (60-80%) levels.
Compounds are diluted in DMSO across the first 10 wells of a Costar V-bottom 96-well plate using a Biomek 2000 Workstation (Beckman-Coulter), with 0.5 log10 dilution intervals. DMSO only is added to the last two columns of the plate. The top concentration of drug in this master plate is typically 2.5 mM. A 1/5 dilution of the compounds is made by adding DMEM+10% FBS with a multichannel pipettor, giving a top concentration of 500 μM. 5 μL of diluted compounds is transferred into black Costar flat bottom 96-well daughter plates using a RapidPlate workstation (Zymark).
Cells are grown to approximately 80% confluency and trypsinised as described above. Cells are counted in a Levy Hemocytometer and diluted to 20,000 cells/ml in DMEM containing 10% FBS, 1× penicillin/streptomycin, 1×NEAAs. (Note: Geneticin is omitted for the assay).
245 μL cell suspension is added to the first 11 columns of the daughter plates prepared as above using a Multidrop dispenser (Titertek). Thus, 5,000 cells are added per well, and the final top concentration of each compound is 10 μM. The twelfth column of each plate is used to generate background readings for the assay. Plates are incubated at 37° C., 5% CO2 for 72 hours.
Steady-Glo reagent is prepared according to the manufacturer's instructions, by mixing the Steady-Glo Buffer and Steady-Glo substrate Buffer at room temperature. Medium is removed from the 96-well plates containing ET cells treated with compound using a multi-channel aspirator. 100 μl of Steady-Glo reagent is added to each well using a multichannel pipettor or Multidrop dispensor. […]
For orientation: Replicon systems follow genome replication, usually without infectious particles.
By IC50 is commonly meant the midpoint of a concentration-inhibition curve. The low end stands for inhibition by little substance, the high end for a need for much substance. With `O=C(N[C@@H]1CCCc2c1[nH]c1ccc(Cl)cc21)c1ccccc1F` [Example 46B, N-[(1R)-6-chloro-2,3,4,9-tetrahydro-1H-carbazol-1-yl]-2-fluorobenzamide], the IC50 worked out at 16 nM. `O=C(NC1CCCc2c1[nH]c1ccc(Br)cc21)c1ccccn1` (stereo not drawn) [Example 38, N-(6-Bromo-2,3,4,9-tetrahydro-1H-carbazol-1-yl)pyridine-2-carboxamide] registered a concentration for half-maximal inhibition (IC50) of 7 nM. Compared with the last compound, the IC50 is about 2.3-fold lower. As for `O=C(N[C@@H]1CCCc2c1[nH]c1ccc(Cl)cc21)c1ccccc1` [Example 36B, N-[(1R)-6-chloro-2,3,4,9-tetrahydro-1H-carbazol-1-yl]benzamide], the figure is under 30 nM. With `O=C(NC1CCCc2c1[nH]c1ccc(Br)cc21)c1ccccc1` (stereo not drawn) [Example 14A, N-(6-Bromo-2,3,4,9-tetrahydro-1H-carbazol-1-yl)benzamide], half-maximal inhibition (IC50) was put at 17 nM. In turn, `O=C(N[C@@H]1CCCc2c1[nH]c1ccc(Cl)cc21)c1ccccn1` [Example 45B, N-[(1R)-6-chloro-2,3,4,9-tetrahydro-1H-carbazol-1-yl]pyridine-2-carboxamide] came in with an IC50 of 6 nM. Compared with the last compound, the IC50 is about 2.8-fold lower. The compound `O=C(NC1CCCc2c1[nH]c1ccc(Br)cc21)c1ccccc1F` (stereo not drawn) [Example 29, N-(6-Bromo-2,3,4,9-tetrahydro-1H-carbazol-1-yl)-2-fluorobenzamide] yielded an IC50 of 6 nM.
